Results reported in ChEMBL document CHEMBL1137531, “Structure-based design and synthesis of (5-arylamino-2H-pyrazol-3-yl)-biphenyl-2',4'-diols as novel and potent human CHK1 inhibitors” (J Med Chem, 2007).
The source made the active and inactive calls. The rule behind the calls is not given here.

Tests used:
[1] = target: T1, Serine/threonine-protein kinase Chk1 (Homo sapiens, UniProt O14757); test: Inhibition of human CHK1 expressed in baculovirus/insect cell system
T1 sequence (O14757 whole entry): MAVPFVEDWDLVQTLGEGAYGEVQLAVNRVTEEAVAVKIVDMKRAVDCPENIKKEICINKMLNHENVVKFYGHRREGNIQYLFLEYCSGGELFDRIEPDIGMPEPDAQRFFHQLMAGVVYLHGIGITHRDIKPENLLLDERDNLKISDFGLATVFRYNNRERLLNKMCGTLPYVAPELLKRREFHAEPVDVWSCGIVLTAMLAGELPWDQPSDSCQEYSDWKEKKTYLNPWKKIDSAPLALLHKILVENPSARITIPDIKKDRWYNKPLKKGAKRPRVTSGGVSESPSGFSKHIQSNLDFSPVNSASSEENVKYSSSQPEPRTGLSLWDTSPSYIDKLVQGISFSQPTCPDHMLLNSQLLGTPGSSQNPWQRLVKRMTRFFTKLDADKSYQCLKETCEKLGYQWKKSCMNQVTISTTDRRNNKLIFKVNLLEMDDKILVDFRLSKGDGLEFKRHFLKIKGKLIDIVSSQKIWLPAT

[2] = target: T1, Serine/threonine-protein kinase Chk1; test: Activity at human CHK1 in CA46 cells by histone H3 ELISA assay; type: cell-based
[3] = target: Serine/threonine-protein kinase Chk1 (Homo sapiens) (UniProt O14757); test: Activity at human CHK1 in CA46 cells by histone H3 ELISA assay at 1.0 uM; type: cell-based
[4] = target: Serine/threonine-protein kinase Chk1 (Homo sapiens) (UniProt O14757); test: Activity at human CHK1 in CA46 cells by histone H3 ELISA assay at 10 uM; type: cell-based
[5] = target: Protein kinase C zeta type (Homo sapiens) (UniProt Q05513); test: Inhibition of PKCzeta at 1 uM
[6] = target: Serine/threonine-protein kinase Chk2 (Homo sapiens) (UniProt O96017); test: Inhibition of human CHK2 expressed in Escherichia coli at 1 uM
Sequence of Serine/threonine-protein kinase Chk2 (Homo sapiens) (O96017 whole entry): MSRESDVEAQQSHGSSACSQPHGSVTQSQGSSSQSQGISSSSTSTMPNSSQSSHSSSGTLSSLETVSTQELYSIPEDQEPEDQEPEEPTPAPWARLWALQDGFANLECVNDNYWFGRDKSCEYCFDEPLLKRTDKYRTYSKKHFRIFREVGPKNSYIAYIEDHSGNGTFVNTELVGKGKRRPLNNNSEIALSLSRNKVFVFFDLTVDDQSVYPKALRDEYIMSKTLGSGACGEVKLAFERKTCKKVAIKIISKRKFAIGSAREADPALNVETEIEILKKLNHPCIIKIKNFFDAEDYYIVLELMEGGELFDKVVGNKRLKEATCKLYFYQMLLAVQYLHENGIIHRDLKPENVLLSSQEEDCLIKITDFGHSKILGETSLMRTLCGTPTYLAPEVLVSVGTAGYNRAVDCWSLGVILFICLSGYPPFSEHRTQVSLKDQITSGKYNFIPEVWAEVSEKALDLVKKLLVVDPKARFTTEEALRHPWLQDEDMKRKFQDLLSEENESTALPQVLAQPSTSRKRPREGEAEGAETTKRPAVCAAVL

[7] = target: Protein kinase C beta type (Homo sapiens) (UniProt P05771); test: Inhibition of PKCbeta at 1 uM
[8] = target: Cyclin-dependent kinase 2 (Homo sapiens) (UniProt P24941); test: Inhibition of CDK2 at 1 uM
[9] = target: Proto-oncogene tyrosine-protein kinase Src (Homo sapiens) (UniProt P12931); test: Inhibition of SRC at 1 uM
[10] = target: MAP kinase-activated protein kinase 2 (Mus musculus) (UniProt P49138); test: Inhibition of mouse MAPKAP2 at 1 uM
[11] = target: Mitogen-activated protein kinase 1 (Homo sapiens) (UniProt P28482); test: Inhibition of ERK2 at 1 uM
Sequence of Mitogen-activated protein kinase 1 (Homo sapiens) (P28482 whole entry): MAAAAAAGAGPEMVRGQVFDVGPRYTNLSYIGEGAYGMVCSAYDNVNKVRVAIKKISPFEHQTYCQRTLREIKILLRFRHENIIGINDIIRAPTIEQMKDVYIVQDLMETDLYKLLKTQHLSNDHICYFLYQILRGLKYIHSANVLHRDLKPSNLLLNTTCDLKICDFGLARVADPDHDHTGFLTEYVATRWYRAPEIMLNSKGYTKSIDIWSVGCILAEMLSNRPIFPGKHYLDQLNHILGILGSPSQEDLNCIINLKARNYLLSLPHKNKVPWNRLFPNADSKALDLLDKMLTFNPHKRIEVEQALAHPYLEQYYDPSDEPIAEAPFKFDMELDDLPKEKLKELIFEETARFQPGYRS

[12] = target: T2, RAC-alpha serine/threonine-protein kinase (Homo sapiens, UniProt P31749); test: Inhibition of AKT1 at 1 uM
T2 sequence (P31749 whole entry): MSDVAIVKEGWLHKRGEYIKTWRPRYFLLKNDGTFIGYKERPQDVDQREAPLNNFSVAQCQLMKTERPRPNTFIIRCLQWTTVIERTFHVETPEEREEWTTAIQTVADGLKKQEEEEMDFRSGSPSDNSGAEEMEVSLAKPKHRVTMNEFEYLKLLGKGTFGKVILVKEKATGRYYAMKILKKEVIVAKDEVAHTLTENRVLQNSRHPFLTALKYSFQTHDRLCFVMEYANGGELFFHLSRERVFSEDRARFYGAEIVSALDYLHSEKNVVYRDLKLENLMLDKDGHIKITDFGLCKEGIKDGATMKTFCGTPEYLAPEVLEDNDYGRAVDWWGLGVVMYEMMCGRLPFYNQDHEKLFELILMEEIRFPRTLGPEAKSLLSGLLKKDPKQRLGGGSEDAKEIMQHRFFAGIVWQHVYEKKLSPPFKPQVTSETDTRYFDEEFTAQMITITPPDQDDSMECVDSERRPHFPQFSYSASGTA

[13] = target: Mitogen-activated protein kinase 1 (Homo sapiens) (UniProt P28482); test: Inhibition of human MAPK1 at 1 uM
[14] = target: Protein kinase C alpha type (Homo sapiens) (UniProt P17252); test: Inhibition of PKCalpha at 1 uM
[15] = target: Serine/threonine-protein kinase pim-2 (Homo sapiens, UniProt Q9P1W9); test: Inhibition of PIM2
[16] = target: Dual specificity protein kinase CLK1 (Homo sapiens) (UniProt P49759); test: Inhibition of CLK at 1 uM
Sequence of Dual specificity protein kinase CLK1 (Homo sapiens) (P49759 whole entry, looked up): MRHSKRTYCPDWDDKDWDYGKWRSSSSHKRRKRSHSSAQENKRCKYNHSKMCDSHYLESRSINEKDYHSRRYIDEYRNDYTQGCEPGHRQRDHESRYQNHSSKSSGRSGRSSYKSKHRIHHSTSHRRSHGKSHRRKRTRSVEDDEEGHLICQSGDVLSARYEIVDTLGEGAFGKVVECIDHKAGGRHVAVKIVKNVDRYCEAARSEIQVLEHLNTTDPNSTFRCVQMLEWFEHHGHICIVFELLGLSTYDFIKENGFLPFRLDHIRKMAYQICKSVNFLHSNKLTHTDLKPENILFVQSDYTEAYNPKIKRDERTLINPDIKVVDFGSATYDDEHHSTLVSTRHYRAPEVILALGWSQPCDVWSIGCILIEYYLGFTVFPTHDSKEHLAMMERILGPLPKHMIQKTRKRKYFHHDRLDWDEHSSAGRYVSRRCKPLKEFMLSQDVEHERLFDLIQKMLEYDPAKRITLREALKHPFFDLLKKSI

[17] = target: Insulin receptor (Homo sapiens, UniProt P06213); test: Inhibition of INSR
Sequence of Insulin receptor (P06213 28-758 limits assumed): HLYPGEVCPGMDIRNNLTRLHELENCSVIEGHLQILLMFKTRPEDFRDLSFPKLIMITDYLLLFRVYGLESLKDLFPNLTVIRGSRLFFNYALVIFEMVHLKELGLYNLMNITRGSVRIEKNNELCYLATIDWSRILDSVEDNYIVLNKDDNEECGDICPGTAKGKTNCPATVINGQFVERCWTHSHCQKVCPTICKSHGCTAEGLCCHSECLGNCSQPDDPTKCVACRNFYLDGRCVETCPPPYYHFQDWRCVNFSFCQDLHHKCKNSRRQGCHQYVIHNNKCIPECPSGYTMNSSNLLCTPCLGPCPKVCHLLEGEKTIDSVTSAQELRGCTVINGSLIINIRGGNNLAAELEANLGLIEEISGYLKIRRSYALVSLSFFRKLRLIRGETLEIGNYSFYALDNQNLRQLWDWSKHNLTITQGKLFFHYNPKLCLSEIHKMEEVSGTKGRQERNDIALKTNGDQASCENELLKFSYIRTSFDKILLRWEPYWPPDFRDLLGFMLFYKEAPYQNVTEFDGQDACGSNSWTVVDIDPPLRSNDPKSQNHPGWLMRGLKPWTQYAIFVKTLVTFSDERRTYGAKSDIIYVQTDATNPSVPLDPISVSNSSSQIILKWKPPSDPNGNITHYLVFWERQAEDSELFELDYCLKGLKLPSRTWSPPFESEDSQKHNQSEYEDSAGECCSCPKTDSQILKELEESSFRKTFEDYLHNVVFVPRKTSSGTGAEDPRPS
Sequence of Insulin receptor (P06213 763-1382 limits assumed): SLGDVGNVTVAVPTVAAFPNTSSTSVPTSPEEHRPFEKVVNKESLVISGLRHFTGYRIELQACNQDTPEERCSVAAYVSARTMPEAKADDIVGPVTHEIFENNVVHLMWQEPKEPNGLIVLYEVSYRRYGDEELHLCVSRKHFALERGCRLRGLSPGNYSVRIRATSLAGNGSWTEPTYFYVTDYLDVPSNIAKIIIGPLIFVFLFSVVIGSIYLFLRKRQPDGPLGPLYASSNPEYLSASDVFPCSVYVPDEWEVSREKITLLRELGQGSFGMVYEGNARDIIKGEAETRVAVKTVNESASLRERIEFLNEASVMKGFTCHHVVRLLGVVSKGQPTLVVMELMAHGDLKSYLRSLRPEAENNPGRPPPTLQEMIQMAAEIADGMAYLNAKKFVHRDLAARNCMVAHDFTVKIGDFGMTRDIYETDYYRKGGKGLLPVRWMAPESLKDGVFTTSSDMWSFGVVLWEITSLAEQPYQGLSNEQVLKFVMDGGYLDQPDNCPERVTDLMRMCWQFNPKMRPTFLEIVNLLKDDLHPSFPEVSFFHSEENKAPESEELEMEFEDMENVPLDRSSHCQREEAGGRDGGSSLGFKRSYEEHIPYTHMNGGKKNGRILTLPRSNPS

[18] = target: Serine/threonine-protein kinase PAK 4 (Homo sapiens, UniProt O96013); test: Inhibition of PAK4
[19] = target: Tyrosine-protein kinase Lck (Homo sapiens, UniProt P06239); test: Inhibition of human LCK
[20] = target: T2, RAC-alpha serine/threonine-protein kinase; test: Inhibition of AKT1
[21] = Inhibition of human VEGFR expressed in baculovirus/insect cell system by FLVK-P assay
[22] = target: Rho-associated protein kinase 1 (Homo sapiens) (UniProt Q13464); test: Inhibition of ROCK1 activity at 1 uM
[23] = target: Glycogen synthase kinase-3 beta (Homo sapiens) (UniProt P49841); test: Inhibition of GSK3-beta at 1 uM
[24] = target: Inhibitor of nuclear factor kappa-B kinase subunit epsilon (Homo sapiens) (UniProt Q14164); test: Inhibition of IKKi at 1 uM
[25] = target: Inhibitor of nuclear factor kappa-B kinase subunit beta (Homo sapiens) (UniProt O14920); test: Inhibition of IKK-beta at 1 uM
[26] = target: Tyrosine-protein kinase ABL1 (Homo sapiens, UniProt P00519); test: Inhibition of ABL
Sequence of Tyrosine-protein kinase ABL1 (P00519 whole entry): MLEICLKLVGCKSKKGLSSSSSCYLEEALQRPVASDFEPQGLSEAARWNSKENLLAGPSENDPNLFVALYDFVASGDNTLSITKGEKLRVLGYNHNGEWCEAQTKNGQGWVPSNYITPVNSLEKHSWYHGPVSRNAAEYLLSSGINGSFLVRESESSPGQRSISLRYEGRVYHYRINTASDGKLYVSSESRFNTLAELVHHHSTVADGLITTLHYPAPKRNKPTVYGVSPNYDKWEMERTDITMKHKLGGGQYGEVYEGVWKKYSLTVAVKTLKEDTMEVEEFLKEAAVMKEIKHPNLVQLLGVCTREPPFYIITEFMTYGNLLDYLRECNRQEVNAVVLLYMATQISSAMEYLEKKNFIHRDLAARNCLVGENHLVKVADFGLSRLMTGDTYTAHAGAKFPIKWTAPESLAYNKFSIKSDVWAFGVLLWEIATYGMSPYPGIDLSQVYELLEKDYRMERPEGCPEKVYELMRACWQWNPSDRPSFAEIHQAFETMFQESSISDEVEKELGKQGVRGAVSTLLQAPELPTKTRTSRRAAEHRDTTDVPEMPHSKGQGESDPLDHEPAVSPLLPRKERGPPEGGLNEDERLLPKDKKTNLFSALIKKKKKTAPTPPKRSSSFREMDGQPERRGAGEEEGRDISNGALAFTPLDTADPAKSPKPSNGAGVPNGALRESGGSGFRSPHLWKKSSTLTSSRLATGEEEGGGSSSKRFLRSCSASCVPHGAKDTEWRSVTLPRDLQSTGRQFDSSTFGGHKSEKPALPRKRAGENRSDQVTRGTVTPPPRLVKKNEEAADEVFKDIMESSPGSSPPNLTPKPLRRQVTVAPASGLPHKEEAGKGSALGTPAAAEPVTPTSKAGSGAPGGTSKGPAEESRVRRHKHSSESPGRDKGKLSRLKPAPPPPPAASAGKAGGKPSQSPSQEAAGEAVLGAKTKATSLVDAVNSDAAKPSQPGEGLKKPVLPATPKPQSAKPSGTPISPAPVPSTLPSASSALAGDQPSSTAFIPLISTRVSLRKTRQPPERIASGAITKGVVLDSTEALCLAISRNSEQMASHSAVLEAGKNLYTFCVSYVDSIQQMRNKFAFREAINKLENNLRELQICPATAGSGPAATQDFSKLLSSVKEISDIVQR

[27] = target: Calcium/calmodulin-dependent protein kinase type 1 (Homo sapiens, UniProt Q14012); test: Inhibition of CAMK1
[28] = target: Aurora kinase A (Homo sapiens, UniProt O14965); test: Inhibition of Aurora A
[29] = target: Serine/threonine-protein kinase Sgk1 (Homo sapiens, UniProt O00141); test: Inhibition of human SGK
[30] = Inhibition of bovine PKA
[31] = target: Serine/threonine-protein kinase Nek2 (Homo sapiens, UniProt P51955); test: Inhibition of NEK2
[32] = target: Serine/threonine-protein kinase 26 (Homo sapiens, UniProt Q9P289); test: Inhibition of MASK
[33] = target: Casein kinase II (Homo sapiens) (UniProt P67870+P68400+P19784); test: Inhibition of CK2 at 1 uM; type: protein-complex assay
[34] = target: Cyclin-dependent kinase 1 (Homo sapiens, UniProt P06493); test: Inhibition of CDK1 expressed in Sf21 cells
[35] = target: 3-phosphoinositide-dependent protein kinase 1 (Homo sapiens) (UniProt O15530); test: Inhibition of human PDK1 at 1 uM
Sequence of 3-phosphoinositide-dependent protein kinase 1 (Homo sapiens) (O15530 whole entry, looked up): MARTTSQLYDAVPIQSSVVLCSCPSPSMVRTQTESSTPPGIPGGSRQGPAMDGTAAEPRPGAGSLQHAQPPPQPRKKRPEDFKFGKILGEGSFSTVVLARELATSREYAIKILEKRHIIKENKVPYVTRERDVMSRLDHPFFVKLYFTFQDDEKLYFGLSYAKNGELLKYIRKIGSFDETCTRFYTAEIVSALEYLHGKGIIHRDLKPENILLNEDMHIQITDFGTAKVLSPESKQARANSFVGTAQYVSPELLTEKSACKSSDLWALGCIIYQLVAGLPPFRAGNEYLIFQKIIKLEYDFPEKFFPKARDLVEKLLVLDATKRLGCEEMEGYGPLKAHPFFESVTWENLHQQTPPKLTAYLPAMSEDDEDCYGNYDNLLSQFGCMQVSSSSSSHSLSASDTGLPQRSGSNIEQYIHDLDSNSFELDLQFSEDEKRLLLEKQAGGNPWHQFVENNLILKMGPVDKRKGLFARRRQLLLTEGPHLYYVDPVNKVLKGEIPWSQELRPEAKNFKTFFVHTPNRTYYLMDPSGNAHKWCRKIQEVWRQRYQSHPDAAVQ

[36] = tested on: MDA-MB-231; test: Cell cycle arrest in MDA-MB-231 cells assessed as accumulation at S phase by FACS analysis; type: functional, cell-based; details: Homo sapiens

Question: For `Oc1ccc(-c2ccc(-c3cc(Nc4ccccc4)n[nH]3)cc2)c(O)c1`, which Ki [1] is on record?
Answer: 1.2 nM

Question: And the EC50 [2]?
Answer: 500 nM

Question: Which results are given for `Oc1ccc(-c2ccc(-c3cc(Nc4ccc(CN5CCCC5)cc4)n[nH]3)cc2)c(O)c1`?
Answer: Ki [1]: 0.18 nM; EC50 [2]: 41 nM

Question: With `CN(C)Cc1ccc(Nc2cc(-c3ccc(-c4ccc(O)cc4O)cc3)[nH]n2)cc1` as the compound, how does the Ki [1] read?
Answer: 0.19 nM

Question: And the EC50 [2]?
Answer: 58 nM

Question: With `Oc1ccc(-c2ccc(-c3cc(Nc4ccc(CNC5CC5)cc4)n[nH]3)cc2)c(O)c1` as the compound, how does the Ki [1] read?
Answer: 0.38 nM

Question: What about the EC50 [2] of the same compound?
Answer: 60 nM

Question: Which results are given for `O=C(Nc1ccc(O)cc1)c1ccc2c(-c3nc4ccccc4[nH]3)n[nH]c2c1`?
Answer: Activity [3]: inactive; Activity [4]: Active

Question: For `CCC(C)NCc1ccc(Nc2cc(-c3ccc(-c4ccc(O)cc4O)cc3)n[nH]2)cn1` (stereo not given), which Ki [1] is on record?
Answer: 0.2 nM

Question: And the EC50 [2]?
Answer: 230 nM

Question: Which inhibition [5] does the source give for `CC(C)NCc1ccc(Nc2cc(-c3ccc(-c4ccc(O)cc4O)cc3)[nH]n2)cc1` here?
Answer: 18.6%

Question: And the inhibition [6]?
Answer: 27.5%

Question: What about the inhibition [7] of the same compound?
Answer: 16%

Question: And the inhibition [8]?
Answer: 31%

Question: What about the inhibition [9] of the same compound?
Answer: 8%

Question: What about the inhibition [10] of the same compound?
Answer: 0.7%

Question: What about the inhibition [11] of the same compound?
Answer: -2%

Question: What about the inhibition [12] of the same compound?
Answer: 7%

Question: What about the inhibition [13] of the same compound?
Answer: 14.5%

Question: What about the inhibition [14] of the same compound?
Answer: 0%

Question: What about the IC50 [15] of the same compound?
Answer: 1720 nM

Question: What about the inhibition [16] of the same compound?
Answer: 24%

Question: And the IC50 [17]?
Answer: > 30000 nM

Question: What about the IC50 [18] of the same compound?
Answer: 14400 nM

Question: And the IC50 [19]?
Answer: 2550 nM

Question: What about the IC50 [20] of the same compound?
Answer: 26900 nM

Question: What about the IC50 [21] of the same compound?
Answer: 1030 nM

Question: What about the inhibition [22] of the same compound?
Answer: 13.5%

Question: And the inhibition [23]?
Answer: 30%

Question: And the inhibition [24]?
Answer: 26%

Question: What about the inhibition [25] of the same compound?
Answer: 12.7%

Question: What about the IC50 [26] of the same compound?
Answer: 1100 nM

Question: And the IC50 [27]?
Answer: 2130 nM

Question: And the IC50 [28]?
Answer: 10000 nM

Question: And the IC50 [29]?
Answer: 290 nM

Question: And the IC50 [30]?
Answer: 860 nM

Question: And the IC50 [31]?
Answer: 1040 nM

Question: And the IC50 [32]?
Answer: 1850 nM

Question: And the inhibition [33]?
Answer: 29%

Question: And the IC50 [34]?
Answer: 3300 nM

Question: What about the inhibition [35] of the same compound?
Answer: 33%

Question: What does the source list for `O=C(Nc1ccc(O)cc1O)c1ccc2c(-c3nc4ccccc4[nH]3)n[nH]c2c1`?
Answer: Ki [1]: 0.5 nM; EC50 [2]: 550 nM

Question: Which Ki [1] does the source give for `Oc1ccc(-c2ccc(-c3cc(Nc4ccc(CN5CCCCC5)nc4)[nH]n3)cc2)c(O)c1` here?
Answer: 0.3 nM

Question: What about the EC50 [2] of the same compound?
Answer: 150 nM

Question: With `Oc1ccc(-c2ccc(-c3cc(Nc4ccc(CNCC5CC5)nc4)[nH]n3)cc2)c(O)c1` as the compound, how does the Ki [1] read?
Answer: 0.8 nM

Question: And the EC50 [2]?
Answer: 165 nM

Question: For `Nc1ccn([C@@H]2O[C@H](CO)[C@@H](O)C2(F)F)c(=O)n1`, which Activity [36] is on record?
Answer: Active
